Experimental data published in patent US20080268439A1, “ASSAY SYSTEMS AND METHODS FOR DETECTING MOLECULES THAT INTERACT WITH SK2 CHANNELS” (priority 2007, published 2008).

Experiments:
[1] = target: intermediate conductance Ca^2+-activated K^+ channels (Homo sapiens, UniProt O15554); conditions: cited from earlier work
[2] = target: T1, hSK2A^+ expressed in mammalian tsA201 cells (Homo sapiens, UniProt Q9H2S1, DUP58-58); assay: Membrane potential sensitive dye fluorescence (FLIPR) assay in tsA201 cells stably expressing SK2; type: cell-based; conditions: FIG. 9; for Hill coefficient (nH): inhibition of ATP/Tg induced decrease in fluorescence
T1 construct: other: 100 nM to 1 mM added online; normalized to maximum fluorescence a; Hill coefficient (nH); hSK2A^+ was 1743 nucleotides in length and encoded a polypeptide of 580 amino acids
T1 sequence (Q9H2S1 with tags, fused parts or gaps DUP58-58): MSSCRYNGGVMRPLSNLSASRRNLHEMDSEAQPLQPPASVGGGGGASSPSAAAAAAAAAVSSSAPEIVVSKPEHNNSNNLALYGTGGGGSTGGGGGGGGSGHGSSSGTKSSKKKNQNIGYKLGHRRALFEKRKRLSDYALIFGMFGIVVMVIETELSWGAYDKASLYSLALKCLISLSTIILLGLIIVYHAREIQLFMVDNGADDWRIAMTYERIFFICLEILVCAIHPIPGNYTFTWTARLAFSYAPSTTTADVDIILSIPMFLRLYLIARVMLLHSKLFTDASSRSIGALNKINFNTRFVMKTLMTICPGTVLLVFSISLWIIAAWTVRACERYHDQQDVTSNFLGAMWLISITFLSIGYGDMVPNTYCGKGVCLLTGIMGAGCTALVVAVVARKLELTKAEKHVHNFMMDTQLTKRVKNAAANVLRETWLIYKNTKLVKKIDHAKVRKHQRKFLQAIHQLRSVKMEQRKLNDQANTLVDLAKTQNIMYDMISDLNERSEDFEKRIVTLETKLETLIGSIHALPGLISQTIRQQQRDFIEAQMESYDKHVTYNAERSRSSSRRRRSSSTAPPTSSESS
Protocol: (§1) These cells were plated in a black optical bottom 384 well assay plate at a density of 8×10^6 cells/plate. […] After a 30-minute incubation in the voltage sensitive dye, the cell plate was transferred to a fluorescence plate reader (FLIPR384™, Molecular Devices), and ten baseline fluorescence readings were obtained.
(§2) In FIG. 8, time is represented in seconds on the X-axis, and fluorescence is represented in au on the Y-axis. ATP/Tg addition is indicated at time I, and CsCl addition is indicated at time II.
(§3) The magnitude of the ATP/Tg induced decrease in fluorescence was measured in the presence of each of a panel of known SK2 inhibitors. […]

[3] = tested on: hSK2A^+ expressed in mammalian tsA201 cells; assay: as above; type: cell-based, human; conditions: 10 minutes incubation
Protocol: as §1, §2, §3

intermediate conductance Ca^2+-activated K^+ channels, sequence (O15554 whole entry): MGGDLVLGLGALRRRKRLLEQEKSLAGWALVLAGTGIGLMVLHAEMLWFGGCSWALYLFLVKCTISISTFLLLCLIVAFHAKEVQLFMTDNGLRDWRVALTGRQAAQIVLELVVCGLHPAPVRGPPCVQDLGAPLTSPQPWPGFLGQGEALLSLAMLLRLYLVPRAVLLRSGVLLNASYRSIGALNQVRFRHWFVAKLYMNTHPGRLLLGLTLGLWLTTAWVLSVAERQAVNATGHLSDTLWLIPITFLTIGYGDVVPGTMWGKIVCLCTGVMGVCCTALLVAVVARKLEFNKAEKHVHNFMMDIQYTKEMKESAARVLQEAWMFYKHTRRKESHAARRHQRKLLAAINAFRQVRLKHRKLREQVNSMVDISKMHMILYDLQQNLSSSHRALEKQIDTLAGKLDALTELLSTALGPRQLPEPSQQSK

Compound	binding affinity of the inhibitors tested (rank order) [2]	effect on the fluorescence signals (responses to ATP/Tg and Cs+) ([3]; tested at 833 nM)	further results
CCn1c(=O)[nH]c2ccccc21 [1-EBIO, 1-ethyl-2-benzimidazolinone]			effect on intermediate conductance Ca2+-activated K+ channels [1]: enhance activity
C[N+]1(C)CCc2cc3c(cc2[C@H]1[C@@H]1OC(=O)c2c1ccc1c2OCO1)OCO3.[Br-] [bicuculline methobromide]	apamin>scyllatoxin>NS1619>quinidine>bicuculline		Hill coefficient (nH) [2]: 1
O=c1[nH]c2cc(C(F)(F)F)ccc2n1-c1cc(C(F)(F)F)ccc1O [NS1619]	apamin>scyllatoxin>NS1619>quinidine>bicuculline		
iberiotoxin: inhibitor of the IK channel; isolated from Mesobuthus taniulus (QFTDVDCSVSKECWSVCKDLFGVDRGKCMGKKCRCYQ)		no effect	
C=C[C@H]1C[N@@]2CC[C@H]1C[C@@H]2[C@@H](O)c1ccnc2ccc(OC)cc12 [quinidine]	apamin>scyllatoxin>NS1619>quinidine>bicuculline		Hill coefficient (nH) [2]: 0.6
α-dendrotoxin (QPRRKLCILHRNPGRCYDKIPAFYYNQKKKQCERFDWSGCGGNSNRFKTIEECRRTCIG)		no effect	
Nc1cc(N2CCCCC2)nc(N)[n+]1[O-] [minoxidil]			effect on the fluorescence signals (responses to ATP/Tg and Cs+) ([3]; tested at 1.43 μM): no effect
CC(N/C(=N\C#N)Nc1ccncc1)C(C)(C)C (centres unmarked) [pinacidil]			effect on the fluorescence signals (responses to ATP/Tg and Cs+) ([3]; tested at 286 μM): no effect
noxiustoxin: inhibitor of Ca2+- and voltage activated channels (TIINVKCTSPKQCSKPCKELYGSSAGAKCMNGKCKCYNN)		no effect	
